Test results taken from patent US20040043417A1, “Generation and screening of a dynamic combinatorial library” (priority 2000, published 2004).

Target: Concanavalin A (Canavalia ensiformis, UniProt P02866)
Experiment: Screening of acyl hydrazone libraries against Concanavalin A, competitive binding assay
Experimental: The library was then made up of one part (40 μL) of each of these solutions, buffered with sodium acetate buffer (50 μL, 1 M, pH 4.0), and diluted with water (510 μL) to a final concentration of 1 mM of each building block, and 50 mM buffer. The resulting libraries were allowed to equilibrate for one week at room temperature to assure complete reaction, and used directly, or following concentration/dilution, in the subsequent screening tests.

SMILES: NNC(=O)CCCCCCCCC(=O)NN [SED, sebacoyldihydrazide]
- contribution of building block to the binding to Concanavalin A: important contributions to the binding
